Measured values: US20230203014A1, “NOVEL F[…] FOR LABELING TUMOR TISSUE” (PROIMAGING, priority 2020, published 2023)

Experiments:
[1] = tested on: orthotopic pancreatic adenocarcinoma; test: ex vivo fluorescence imaging of pancreatic tumors; format: in vivo, mouse; details: control dye
Protocol: A model of orthotopic pancreatic adenocarcinoma in the mouse was developed. The tumoral cells were amplified subcutaneously in SCID mice and the resultant fragments were then implanted surgically in the pancreas of irradiated BALB/c nude mice.
The development of the tumor was monitored in vivo by MRI (4.7T, PharmaScan, Bruker Biospin) at three time points, D14, 28 and 36. The animals were subjected to […] in order to minimize autofluorescence. Fluorescent imaging was performed with a charge-coupled device (CCD) camera (PhotonRT, BiospaceLab) with excitation at 700 nm and an emission filter at 770 nm.
After sessions of in vivo imaging performed at 2 h, 48 h and 164 h, ex vivo fluorescent images were acquired. The fluorescent compounds according to the invention 2 (CJ215) and CJ319 (the structure of which is detailed below) were injected intravenously at 2 mg/kg, 39 days after implantation of the tumor fragments, whereas the average volumes of the tumors were about 70 mm^3. Indocyanine green (ICG), a dye widely used in the per-operative imaging of tumors, was included as a control.

[2] = tested on: 4T1-Dendra2 mammary tumors; test: in vivo imaging of mammary tumors (fluorescence, IVIS Spectrum); design: species or system mice; details: starting from 48 h post-injection
Source text: ICG (or indocyanine green / Infracyanine) is a fluorescent agent of the prior art, already approved for use in humans for evaluation of cardiac and hepatic function, as well as in ophthalmology, for retinal diseases. It is also undergoing evaluation in many clinical trials throughout the world for guidance of surgery during tumoral exereses, or mapping of the ganglia draining the tumors, by near infrared imaging. ICG was compared with compound (2) according to the invention, synthesis of which is described above in example 2; this compound is called CJ215 in this study.
The study included 30 mice in total, distributed in three groups. The tumoral grafts were all carried out with 50 000 cells 4T1-Dendra2 /20 µl injected in 2 mammary glands contralaterally for each of the mice. […]
The variation of the intensity of the fluorescence signals recorded for each of the biomarkers over time was evaluated from the microscopy image. The capacity of the two markers for producing a signal specifically localized to the tumor was assessed quantitatively by calculating the ratio of the specific signal associated with the tumor to the nonspecific signal in the surrounding tissues. […]
The quantitative measurements were performed on the raw images, which had not been deconvoluted. […]

SMILES: CC1(C)C(/C=C/C=C/C=C/C=C2\N(CCCCS(=O)(=O)O)c3ccc4ccccc4c3C2(C)C)=[N+](CCCCS(=O)(=O)[O-])c2ccc3ccccc3c21 [ICG, indocyanine green]
- specific accumulation in the pancreas or the tumor [1]: did not show any specific accumulation
- observability of the fluorescent signal in the tumors [2]: no longer observable in the tumors
